Data: US7906618B2, “Peptide capable of binding to insulin-binding protein and adsorbent” (Kaneka Corporation, priority 2004, dated 2011)
Ends that are not written are not given here.

Target: T1, Recombinant Human Insulin Receptor (28-956) (soluble insulin receptor, SIR) (Homo sapiens, UniProt P06213)
T1 construct: Recombinant Human Insulin Receptor (28-956); purchased GT/TECHNE Corp
Test: BIAcore determination of peptide-SIR binding (peptide immobilized on sensor chip CM5, soluble insulin receptor as analyte)
Conditions: sensor chip CM5, amine coupling, HBS-EP buffer, SIR 100 nM to 0.781 nM, flow 10 μl/min; for koff: read-out: Dissociation rate constant (peptide-SIR)
Protocol: The affinity for the soluble insulin receptor identified by SEQ ID NO:1 is compared by the method using BIAcore (BIAcore AB) (as described in Am. J. Physiol. 272 (1997) E1089-1098). Briefly, a solution of the soluble insulin receptor is brought into contact with the surface of the ready-made sensor chip with the peptide defined by SEQ ID NO:1 as immobilized thereon, and the interaction is measured.
The dissociation constant (KD) of the peptide P14 obtained in Example 3 was determined using BIAcore upgrade (Biacore AB) and the analysis software BIA evaluation version 3.0 (Biacore AB).
(§1) The ligand was immobilized on the sensor chip CM5 research grade (Biacore AB) by the amine coupling method. Thus, the peptide mentioned above was dissolved in 20 mM carbonate buffer (pH 8.5) (500 μg/ml), and 100 μl of the solution was passed through the flow cell at a flow rate of 5 μl/min. The amount of the peptide immobilized was 200 RU (resonance units).
Recombinant Human Insulin Receptor (28-956) (GT/TECHNE Corp.) was used as the analyte soluble insulin receptor (SIR). To 50 mg in a vial was added HBS-EP buffer (250 ml) for thorough dissolution ([…]), and the solution was 10-fold diluted to give a 100 nM solution. Eight concentration levels from 100 nM to 0.781 nM were prepared by subsequent repetitions of doubling dilution, and measurements were carried out using HBS-EP buffer (10 mM HEPES pH 7.4, 0.15M NaCl, 3 mM EDTA, 0.005% Surfactant P20) (Biacore AB) as a running solution; the rate of flow was 10 μl/min. A sensorgram was thus obtained.
The dissociation constant (KD) of the peptide P15 obtained in Example 6 was determined using BIAcore upgrade (Biacore AB) and the analysis software BIA evaluation version 3.0 (Biacore AB).
as §1, with “130 RU.” for “200 RU (resonance units).”
Recombinant Human Insulin Receptor (28-956) (GT/TECHNE Corp.) was used as the analyte SIR. Eight concentration levels from 100 nM to 0.781 nM were prepared by subsequent repetitions of doubling dilution, which was started from diluting 100 nM solution, and measurements were carried out using HBS-EP buffer as a running solution; the rate of flow was 10 μl/min. A sensorgram was thus obtained.
The dissociation constant (KD) of the peptide P21 obtained in Example 7 was determined using BIAcore upgrade (Biacore AB) and the analysis software BIA evaluation version 3.0 (Biacore AB).
as §1, with “270 RU.” for “200 RU (resonance units).”

T1 sequence (P06213 28-956): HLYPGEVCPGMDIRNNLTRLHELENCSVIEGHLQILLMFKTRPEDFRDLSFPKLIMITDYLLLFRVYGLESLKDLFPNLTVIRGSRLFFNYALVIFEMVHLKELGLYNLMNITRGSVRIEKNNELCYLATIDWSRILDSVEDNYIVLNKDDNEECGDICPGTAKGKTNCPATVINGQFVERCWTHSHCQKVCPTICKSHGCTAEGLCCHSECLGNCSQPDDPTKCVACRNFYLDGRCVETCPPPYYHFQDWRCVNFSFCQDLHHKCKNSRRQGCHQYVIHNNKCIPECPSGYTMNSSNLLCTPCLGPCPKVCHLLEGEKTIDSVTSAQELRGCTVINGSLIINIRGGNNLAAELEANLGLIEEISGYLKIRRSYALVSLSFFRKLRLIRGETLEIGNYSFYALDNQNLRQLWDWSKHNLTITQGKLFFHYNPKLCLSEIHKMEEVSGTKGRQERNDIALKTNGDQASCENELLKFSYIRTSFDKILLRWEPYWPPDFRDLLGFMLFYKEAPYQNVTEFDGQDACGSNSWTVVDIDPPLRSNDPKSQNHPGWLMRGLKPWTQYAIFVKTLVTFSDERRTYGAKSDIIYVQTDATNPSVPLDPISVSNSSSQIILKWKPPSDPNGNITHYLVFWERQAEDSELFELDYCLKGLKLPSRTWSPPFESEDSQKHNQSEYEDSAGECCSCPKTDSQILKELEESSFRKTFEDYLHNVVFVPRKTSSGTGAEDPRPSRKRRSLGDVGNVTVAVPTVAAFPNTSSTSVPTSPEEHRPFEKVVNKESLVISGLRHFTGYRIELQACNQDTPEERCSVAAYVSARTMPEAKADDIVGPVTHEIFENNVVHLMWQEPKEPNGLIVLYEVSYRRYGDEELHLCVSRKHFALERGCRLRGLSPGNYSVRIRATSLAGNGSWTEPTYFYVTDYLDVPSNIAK

| Binding rate constant (peptide-SIR) | koff | Sequence |
| --- | --- | --- |
| 8.6E+02 | 0.02 s⁻¹ | CASDIVEGIYL [Peptide P15, CASDIVEGIYL] |
| 9.7E+03 | 0.015 s⁻¹ | CASDIVEGLYIVLAER [Peptide P14, CASDIVEGLYIVLAER] |
| 5.1E+04 | 0.6 s⁻¹ | CQHILGSDIVEGIYL [Peptide P21, CQHILGSDIVEGIYL] |
